As a reminder, the inhibition is the relative decrease from the control value, in per cent.

Read-outs that look alike come from different tables or passages of the source.

This note sets out measurements from patent publication US8017809B2, “Bisboron compound” (Japan Science and Technology Agency, priority 2005, dated 2011).

This assay deals with capacitative calcium entry (CCE) in IP3 receptor-deficient strain of cell line DT40.
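Also: intracellular Ca2+ read as 340/380 nm excitation ratio at 510 nm emission, stores emptied by thapsigargin without external Ca2+, then 2 mM CaCl2 added, inhibition of the ensuing Ca2+ rise.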

Procedure: (Assay of Capacitative Calcium Entry Inhibition)
Its 510 nm fluorescence obtained at 340 nm and 380 nm is measured and the fluorescence ratio F340/380 is measured to determine the intracellular calcium ion concentration. Next, thapsigargin (an endoplasmic reticulum calcium ion pump inhibitor) is allowed to act without calcium ion in an extracellular fluid to deplete an intracellular calcium store. Calcium chloride at a final concentration of 2 mM is added to the extracellular fluid. The IC50 value is calculated by estimating the effect of each compound on the degree of increase in the intracellular calcium concentration at the time of the addition.

`CN(C)CCOB(c1ccc(COCc2ccc(B(OCCN(C)C)c3ccc(C(F)(F)F)cc3)cc2)cc1)c1ccc(C(F)(F)F)cc1` [Example 106, Bis(4,4′-(p-trifluoromethylphenyl-N,N-dimethylaminoethoxyboryl)benzyl) ether]: the inhibition runs as follows: (1 µM) 30%; (3 µM) 100%.

For `NCCOB(c1ccc(COCc2ccc(B(OCCN)c3ccc(C(F)(F)F)cc3)cc2)cc1)c1ccc(C(F)(F)F)cc1` [Example 108, Bis(4,4′-(p-trifluoromethylphenyl-aminoethoxyboryl)benzyl) ether], the inhibition runs as follows: (1 µM) 20%; (3 µM) 100%.

Consider `CNCCOB(c1ccccc1)c1ccc(COc2ccc(B(OCCNC)c3ccccc3)cc2)cc1` [Example 109, (4-Phenyl-N-methylaminoethoxyborylphenyl) 4′-(N-methylaminoethoxyborylbenzyl) ether], for which the inhibition (1 µM) stood at 80% and the inhibition (3 µM) was determined as 100%.

With `CN(C)CCOB(c1ccccc1)c1ccc(COc2ccc(B(OCCN(C)C)c3ccccc3)cc2)cc1` [Example 110, (4-Phenyl-N,N-dimethylaminoethoxyborylphenyl) 4′-(N,N-dimethylaminoethoxyborylbenzyl) ether], the inhibition reads like this: (1 µM) 20%; (3 µM) 100%.

As for `c1ccc(B(OCc2ccccn2)c2ccc(COc3ccc(B(OCc4ccccn4)c4ccccc4)cc3)cc2)cc1` [Example 111, (4-Phenyl-2-pyridylmethoxyborylphenyl) (4′-phenyl-2-pyridylmethoxyborylbenzyl) ether], the inhibition came out at 20% (1 µM) and 100% (3 µM).

Turning to `c1ccc(B(OCC2CCCN2)c2ccc(COCc3ccc(B(OCC4CCCN4)c4ccccc4)cc3)cc2)cc1` (stereo not drawn) [Example 134, Bis(4,4′-(phenyl-2-pyrrolidinemethoxyboryl)benzyl) ether], the inhibition (1 µM) turned out to be 20% and the inhibition (3 µM) was 100%.

`CCCCNCCOB(c1ccccc1)c1ccc(COCc2ccc(B(OCCNCCCC)c3ccccc3)cc2)cc1` [Example 136, Bis(4,4′-(phenyl-butylaminoethoxyboryl)benzyl) ether]: the inhibition is, setting by setting: (1 µM) 30%; (3 µM) 100%.

On to `NCC(OB(c1ccccc1)c1cccc(COCc2cccc(B(OC(CN)c3ccccc3)c3ccccc3)c2)c1)c1ccccc1` (stereo not drawn) [Example 150, Bis(3,3′-(phenyl-2-amino-1-phenylethoxyboryl)benzyl) ether], for which the inhibition is, setting by setting: (1 µM) 50%; (3 µM) 100%.

With `CNCCOB(c1ccccc1)c1cccc(COCc2cccc(B(OCCNC)c3ccccc3)c2)c1` [Example 151, Bis(3,3′-(phenyl-N-methylethoxyboryl)benzyl) ether], the inhibition was determined as 60% (1 µM) and 100% (3 µM).

Turning to `CC(CCNCCN)OB(c1ccccc1)c1cccc(COCc2cccc(B(OC(C)CCNCCN)c3ccccc3)c2)c1` (stereo not drawn) [Example 152, Bis(3,3′-(phenyl-N-aminoethyl-1-methyl-3-aminopropoxyboryl)benzyl) ether], the inhibition (1 µM) was 40% and the inhibition (3 µM) was 80%.

With `CCCCNCCB(c1ccccc1)c1cccc(COCc2cccc(B(CCNCCCC)c3ccccc3)c2)c1` [Example 155, Bis(3,3′-(phenyl-N-butylaminoethylboryl)benzyl) ether], the inhibition runs as follows: (1 µM) 95%; (3 µM) 100%.

Regarding `c1ccc(B(OCc2ccccn2)c2ccc(Oc3ccc(B(OCc4ccccn4)c4ccccc4)cc3)cc2)cc1` [Example 160, Bis(4,4′-(phenyl-2-pyridylmethoxyboryl)phenyl) ether], the inhibition is 0% (3 µM) and 100% (10 µM).

On to `NC(COB(c1ccccc1)c1ccc(COCc2ccc(B(OCC(N)c3ccccc3)c3ccccc3)cc2)cc1)c1ccccc1` (stereo not drawn) [Example 164, Bis(4,4′-(phenyl-2-phenyl-2-amino-ethoxyboryl)benzyl) ether], for which the inhibition is, setting by setting: (3 µM) 100%; (10 µM) 100%.

As for “Bis(4,4′-(phenyl-N-methylpiperidine-methoxyboryl)benzyl) ether [Example 139]”, the inhibition (1 µM) was 40% and the inhibition (3 µM) stood at 100%.

Turning to “Bis(4,4′-(phenyl-ornithineboryl)phenyl) ether [Example 117]”, the inhibition reads like this: (1 µM) 80%; (3 µM) 100%.
